Activity calls are given as the source filed them. No rule for the calls is given here.
System: CCRIS mutagenicity, Ames/micronucleus/aberration tests
Experiment: CCRIS mutagenicity studies
[1] = Test System: AMES SALMONELLA TYPHIMURIUM, Strain/Indicator: TA97, Metabolic Activation: NONE, Method: STANDARD PLATE
[2] = Test System: AMES SALMONELLA TYPHIMURIUM, Strain/Indicator: TA98, Metabolic Activation: NONE, Method: PREINCUBATION
[3] = Test System: AMES SALMONELLA TYPHIMURIUM, Strain/Indicator: TA98, Metabolic Activation: NONE, Method: STANDARD PLATE
[4] = Test System: AMES SALMONELLA TYPHIMURIUM, Strain/Indicator: TA100, Metabolic Activation: NONE, Method: PREINCUBATION
[5] = Test System: AMES SALMONELLA TYPHIMURIUM, Strain/Indicator: TA100, Metabolic Activation: NONE, Method: STANDARD PLATE
[6] = Test System: AMES SALMONELLA TYPHIMURIUM, Strain/Indicator: TA1535, Metabolic Activation: NONE, Method: PREINCUBATION
[7] = Test System: AMES SALMONELLA TYPHIMURIUM, Strain/Indicator: TA1537, Metabolic Activation: NONE, Method: PREINCUBATION

CC(C)CC(C)Nc1ccc(Nc2ccccc2)cc1 (stereo unspecified)
mutagenic call (Test System: AMES SALMONELLA TYPHIMURIUM, Strain/Indicator: TA97, Metabolic Activation: MOUSE, LIVER, S-9, DELOR 103, Method: STANDARD PLATE): inactive; negative | mutagenic call [1]: inactive; negative | mutagenic call (Test System: AMES SALMONELLA TYPHIMURIUM, Strain/Indicator: TA98, Metabolic Activation: HAMSTER, LIVER, S-9, AROCLOR 1254 (10%), Method: PREINCUBATION): inactive; negative | mutagenic call (Test System: AMES SALMONELLA TYPHIMURIUM, Strain/Indicator: TA98, Metabolic Activation: MOUSE, LIVER, S-9, DELOR 103, Method: STANDARD PLATE): inactive; negative | mutagenic call [2]: inactive; negative | mutagenic call [3]: inactive; negative | mutagenic call (Test System: AMES SALMONELLA TYPHIMURIUM, Strain/Indicator: TA98, Metabolic Activation: RAT, LIVER, S-9, AROCLOR 1254 (10%), Method: PREINCUBATION): inactive; negative | mutagenic call (Test System: AMES SALMONELLA TYPHIMURIUM, Strain/Indicator: TA100, Metabolic Activation: HAMSTER, LIVER, S-9, AROCLOR 1254 (10%), Method: PREINCUBATION): inactive; negative | mutagenic call (Test System: AMES SALMONELLA TYPHIMURIUM, Strain/Indicator: TA100, Metabolic Activation: MOUSE, LIVER, S-9, DELOR 103, Method: STANDARD PLATE): inactive; negative | mutagenic call [4]: inactive; negative | mutagenic call [5]: inactive; negative | mutagenic call (Test System: AMES SALMONELLA TYPHIMURIUM, Strain/Indicator: TA100, Metabolic Activation: RAT, LIVER, S-9, AROCLOR 1254 (10%), Method: PREINCUBATION): inactive; negative | mutagenic call (Test System: AMES SALMONELLA TYPHIMURIUM, Strain/Indicator: TA1535, Metabolic Activation: HAMSTER, LIVER, S-9, AROCLOR 1254 (10%), Method: PREINCUBATION): inactive; negative | mutagenic call [6]: inactive; negative | mutagenic call (Test System: AMES SALMONELLA TYPHIMURIUM, Strain/Indicator: TA1535, Metabolic Activation: NONE, Method: STANDARD PLATE): inactive; negative | mutagenic call (Test System: AMES SALMONELLA TYPHIMURIUM, Strain/Indicator: TA1535, Metabolic Activation: RAT, LIVER, S-9, AROCLOR 1254 (10%), Method: PREINCUBATION): inactive; negative | mutagenic call (Test System: AMES SALMONELLA TYPHIMURIUM, Strain/Indicator: TA1537, Metabolic Activation: HAMSTER, LIVER, S-9, AROCLOR 1254 (10%), Method: PREINCUBATION): inactive; negative | mutagenic call [7]: inactive; negative | mutagenic call (Test System: AMES SALMONELLA TYPHIMURIUM, Strain/Indicator: TA1537, Metabolic Activation: RAT, LIVER, S-9, AROCLOR 1254 (10%), Method: PREINCUBATION): inactive; negative | mutagenic call (Test System: AMES SALMONELLA TYPHIMURIUM, Strain/Indicator: TA1538, Metabolic Activation: NONE, Method: STANDARD PLATE): inactive; negative

CC(C)(c1ccc(OP(O)O)cc1)c1ccc(OP(O)O)cc1
mutagenic call [1]: inactive; negative | mutagenic call (Test System: AMES SALMONELLA TYPHIMURIUM, Strain/Indicator: TA97, Metabolic Activation: S-9, Method: STANDARD PLATE): inactive; negative | mutagenic call [3]: inactive; negative | mutagenic call (Test System: AMES SALMONELLA TYPHIMURIUM, Strain/Indicator: TA98, Metabolic Activation: S-9, Method: STANDARD PLATE): inactive; negative | mutagenic call [5]: inactive; negative | mutagenic call (Test System: AMES SALMONELLA TYPHIMURIUM, Strain/Indicator: TA100, Metabolic Activation: S-9, Method: STANDARD PLATE): inactive; negative | mutagenic call (Test System: AMES SALMONELLA TYPHIMURIUM, Strain/Indicator: TA102, Metabolic Activation: NONE, Method: STANDARD PLATE): inactive; negative | mutagenic call (Test System: AMES SALMONELLA TYPHIMURIUM, Strain/Indicator: TA102, Metabolic Activation: S-9, Method: STANDARD PLATE): inactive; negative | mutagenic call (Test System: E.COLI, Strain/Indicator: WP2 (PKM101), Metabolic Activation: NONE, Method: STANDARD PLATE): inactive; negative | mutagenic call (Test System: E.COLI, Strain/Indicator: WP2 (PKM101), Metabolic Activation: S-9, Method: STANDARD PLATE): inactive; negative

Clc1ccc(COC(Cn2ccnc2)c2ccc(Cl)cc2Cl)cc1 (stereo unspecified)
mutagenic call (End Point: IN VITRO MICRONUCLEUS, Test System: HAMSTER V79 CELLS, Metabolic Activation: NONE): inactive; negative | mutagenic call (Test System: AMES SALMONELLA TYPHIMURIUM, Strain/Indicator: TA97, Metabolic Activation: HAMSTER, LIVER, S-9, AROCLOR 1254 (10 OR 30%), Method: PREINCUBATION): inactive; negative | mutagenic call (Test System: AMES SALMONELLA TYPHIMURIUM, Strain/Indicator: TA97, Metabolic Activation: NONE, Method: PREINCUBATION): inactive; negative | mutagenic call (Test System: AMES SALMONELLA TYPHIMURIUM, Strain/Indicator: TA97, Metabolic Activation: RAT, LIVER, S-9, AROCLOR 1254 (10 OR 30%), Method: PREINCUBATION): inactive; negative | mutagenic call (Test System: AMES SALMONELLA TYPHIMURIUM, Strain/Indicator: TA98, Metabolic Activation: HAMSTER, LIVER, S-9, AROCLOR 1254 (10 OR 30%), Method: PREINCUBATION): inactive; negative | mutagenic call [2]: inactive; negative | mutagenic call (Test System: AMES SALMONELLA TYPHIMURIUM, Strain/Indicator: TA98, Metabolic Activation: RAT, LIVER, S-9, AROCLOR 1254 (10 OR 30%), Method: PREINCUBATION): inactive; negative | mutagenic call (Test System: AMES SALMONELLA TYPHIMURIUM, Strain/Indicator: TA100, Metabolic Activation: HAMSTER, LIVER, S-9, AROCLOR 1254 (10 OR 30%), Method: PREINCUBATION): inactive; negative | mutagenic call [4]: inactive; negative | mutagenic call (Test System: AMES SALMONELLA TYPHIMURIUM, Strain/Indicator: TA100, Metabolic Activation: RAT, LIVER, S-9, AROCLOR 1254 (10 OR 30%), Method: PREINCUBATION): inactive; negative | mutagenic call (Test System: AMES SALMONELLA TYPHIMURIUM, Strain/Indicator: TA1535, Metabolic Activation: HAMSTER, LIVER, S-9, AROCLOR 1254 (10 OR 30%), Method: PREINCUBATION): inactive; negative | mutagenic call [6]: inactive; negative | mutagenic call (Test System: AMES SALMONELLA TYPHIMURIUM, Strain/Indicator: TA1535, Metabolic Activation: RAT, LIVER, S-9, AROCLOR 1254 (10 OR 30%), Method: PREINCUBATION): inactive; negative

c1ccc2occc2c1
mutagenic call (Test System: AMES SALMONELLA TYPHIMURIUM, Strain/Indicator: TA98, Metabolic Activation: HAMSTER, LIVER, S-9, AROCLOR 1254, Method: PREINCUBATION): inactive; negative | mutagenic call [2]: inactive; negative | mutagenic call (Test System: AMES SALMONELLA TYPHIMURIUM, Strain/Indicator: TA98, Metabolic Activation: RAT, LIVER, S-9, AROCLOR 1254, Method: PREINCUBATION): inactive; negative | mutagenic call (Test System: AMES SALMONELLA TYPHIMURIUM, Strain/Indicator: TA100, Metabolic Activation: HAMSTER, LIVER, S-9, AROCLOR 1254, Method: PREINCUBATION): inactive; negative | mutagenic call [4]: inactive; negative | mutagenic call (Test System: AMES SALMONELLA TYPHIMURIUM, Strain/Indicator: TA100, Metabolic Activation: RAT, LIVER, S-9, AROCLOR 1254, Method: PREINCUBATION): inactive; negative | mutagenic call (Test System: AMES SALMONELLA TYPHIMURIUM, Strain/Indicator: TA1535, Metabolic Activation: HAMSTER, LIVER, S-9, AROCLOR 1254, Method: PREINCUBATION): inactive; negative | mutagenic call [6]: inactive; negative | mutagenic call (Test System: AMES SALMONELLA TYPHIMURIUM, Strain/Indicator: TA1535, Metabolic Activation: RAT, LIVER, S-9, AROCLOR 1254, Method: PREINCUBATION): inactive; negative | mutagenic call (Test System: AMES SALMONELLA TYPHIMURIUM, Strain/Indicator: TA1537, Metabolic Activation: HAMSTER, LIVER, S-9, AROCLOR 1254, Method: PREINCUBATION): inactive; negative | mutagenic call [7]: inactive; negative | mutagenic call (Test System: AMES SALMONELLA TYPHIMURIUM, Strain/Indicator: TA1537, Metabolic Activation: RAT, LIVER, S-9, AROCLOR 1254, Method: PREINCUBATION): inactive; negative | mutagenic call (Test System: MOUSE LYMPHOMA, Strain/Indicator: L5178Y (TK+/TK-), Metabolic Activation: NONE, Method: SUSPENSION/PLATE): active; positive

From PubChem BioAssay AID1259407 (Chemical Carcinogenesis Research Information System (CCRIS), 2018)
